Measurements: patent EP0452507A1, “MEDICINE COMPRISING TOCOPHERYL GLYCOSIDE AS ACTIVE INGREDIENT” (NIPPON HYPOX LABORATORIES INCORPORATED, priority 1989, dated 1991)

Key:
[1] = system: antigen-adjuvant-induced inflammation; experiment: antigen-adjuvant-induced inflammation, right hind paw swelling by volumetry; format: in vivo, rats; conditions: 10 mg/kg intraperitoneally
Procedure: At first, five groups each consisting of five SD male rats weighing 180 to 220 g (total 25 rats) were prepared, and each rat was measured for a size of the subplantar region of the right hind paw. As an antigen to cause an antigen-adjuvant-induced inflammation, 0.2 mg/rat of egg-white albumin was used. Further, as an immune aid (adjuvant), a mixture consisting of 4 mg/rat of aluminum hydroxide and 0.1 ml/rat of pertussis vaccine was prepared.
One out of the five groups was used as Control group. A physiological saline solution of 10 % Nikkol (trade name, dissolving aid, supplied by Nikko Chemical Co., Ltd.) was administered intraperitoneally to each rat, and 0.5 hour after the administration of the physiological saline solution of 10 % Nikkol, the above antigen and adjuvant were administered intracutaneously into the subplantar region of the right hind paw. Then, 0.5, 1, 2, 4, 6, 12 and 24 hours after the administration of the antigen and adjuvant, the swelling on the subplantar region of the right hind paw of each rat was measured by volumetry. And, the average of swelling ratios of the group in every measurement was determined on the basis of the measurement values of the sizes of subplantar regions of the right hind paws of the rats obtained before the administration of the physiological saline solution of 10 % Nikkol.
One of the remaining four groups was used as Example group @. A physiological saline solution of 10 % Nikkol containing VIE-MAN was administered intraperitoneally into each rat of this group in such a dose that the amount of VIE-MAN was 10 mg/kg, and 0.5 hours after the administration of the physiological saline solution of 10 % Nikkol containing VIE-MAN, the above antigen and adjuvant were administered intracutaneously into the subplantar region of the right hind paw. Thereafter, the swelling on the subplantar region of the right hind paw of each rat was measured in the same manner as that for Control group, and the average of swelling ratios of the group in every measurement was determined.
The same procedure as that for Example group ⑧ was carried out except that a physiological saline solution of 10 % Nikkol containing hydrocortisone which was an anti-inflammatory preparation (immunosuppressive preparation) in place of the physiological saline solution of 10 % Nikkol containing VIE-MAN was administered intraperitoneally in such a dose that the amount of the hydrocortisone was 10 mg/kg.
The same procedure as that for Example group ⑧ was carried out except that a physiological saline solution of 10 % Nikkol containing diphenhydramine which was an antihistamine preparation in place of the physiological saline solution of 10 % Nikkol containing VIE-MAN was administered intraperitoneally in such a dose that the amount of the diphenhydramine was 10 mg/kg.
The same procedure as that for Example group ⑧ was carried out except that a physiological saline solution of 10 % Nikkol containing indomethacin which was a nonsteroidal anti-inflammatory preparation (antipyretic analgesic antiphlogistic preparation) in place of the physiological saline solution of 10 % Nikkol containing VIE-MAN was administered intraperitoneally in such a dose that the amount of the indomethacin was 10 mg/kg.
At first, four groups each consisting of five male SD rats weighing 180 to 220 g (total 20 rats) were prepared, and each rat was measured for a size of the subplantar region of the right hind paw. As an antigen to cause an antigen- adjuvant-induced inflammation, 0.2 mg/rat of egg-white albumin was prepared. Further, as an immune aid (adjuvant), a mixture consisting of 4 mg/rat of aluminum hydroxide and 0.1 ml/rat of pertussis vaccine was prepared.
One out of the four groups was used an Control group, and the procedure for Control group in Example 4 was repeated to determine the average of the swelling ratios as a group unit.

[2] = system: stomach (mucosal ulcer in the glandular portion); format: in vivo, rats; conditions: rat, in vivo
Procedure: 15 male SD rats weighing 180 to 220 g were used. These rats were fasted for 24 hours, and separated to three groups each consisting of 5 rats.
Then, one group was used as Control group. A physiological saline solution of 10 % Nikkol was administered intraperitoneally, and the rats were sacrificed with ether 16 hours after the administration. The stomach of each rat was removed, and after 10 ml of physiological saline was injected into the stomachs, the stomachs were fixed by immersing them in a 1 % formalin for 10 minutes. Each stomach was dissected along the greater curvatura, and the length (mm) of mucosal ulcer which occurred in the glandular portion was measured under an anatomical microscope (x 10). The average of the ulcer lengths of the five rats was taken as an ulcer index.
One out of the remaining two groups was used as Example group @. The procedure for Control group was repeated except that a physiological saline solution of 10 % Nikkol containing VIE-MAN in place of the physiological saline solution of 10 % Nikkol was administered intraperitoneally in such a dose that the amount of VIE-MAN was 300 mg/kg, and the ulcer index was determined.
The remaining one group was used as Comparative Example group ⓘ. The procedure for Example group 17 was repeated except that a physiological saline solution of 10 % Nikkol containing indomethacin, which was a nonsteroidal anti-inflammatory preparation (antipyretic analgesic antiphlogistic preparation), in place of the physiological saline solution of 10 % Nikkol was administered intraperitoneally in such a dose that the amount of the indomethacin was 20 mg/kg, and the ulcer index was determined.

[3] = system: carrageenin-induced inflammation; experiment: carrageenin-induced inflammation, right hind paw swelling by volumetry; format: in vivo, rats; conditions: Example 7, Fig. 6
Procedure: Six groups each consisting of five male SD rats weighing 180 to 220 g were used (total 30 rats), and each rat was measured for a size of the subplantar region1 of the right hind paw.
In order to induce carrageenin-induced inflammation, 0.1 ml/rat of a physiological saline solution of 1 % X-carrageenin was prepared.
One out of the six groups was used as Control group. A physiological saline solution of 10 % Nikkol was administered intraperitoneally to each rat of this group, and 0.5 hours after the administration of the physiological saline solution of 10 % Nikkol, 0.1 ml of the physiological saline solution of 1 % X-carrageenin was administered intracutaneously into the subplantar region of the right hind paw of each rat. Then, 0.5, 1, 2, 3 and 4 hours after the administration of […] of the physiological saline solution of 1 % X-carrageenin, the swelling on the subplantar region of the right hind paw of each rat was measured by volumetry, arid the average of swelling ratios of the group in every measurement was determined on the basis of the measurement values of the sizes of subplantar regions of the right hind paws of the rats obtained before the administration of the physiological saline solution of 10 % Nikkol solution.
The procedure for Control group was repeated except that a physiological saline solution of 10 % Nikkol containing VIE-MAN in place of the physiological saline solution of 10 % Nikkol was administered intraperitoneally in such a dose that the amount of VIE-MAN was 10 mg/kg.
The procedure for Control group was repeated except that a physiological saline solution of 10 % Nikkol containing VIE-MAN in place of the physiological saline solution of 10 % Nikkol was administered intraperitoneally in such a dose that the amount of VIE-MAN was 30 mg/kg.
The procedure for Control group was repeated except that a physiological saline solution of 10 % Nikkol containing VIE-MAN in place of the physiological saline solution of 10 % Nikkol was administered intraperitoneally in such a dose that the amount of VIE-MAN was 100 mg/kg.
The procedure for Example groups ⑭, ⑮ and ⑯ was repeated except that a physiological saline solution of 10 % Nikkol containing cortisone acetate which was a steroidal anti-inflammatory preparation (immunosuppressive preparation) in place of the physiological saline solution of 10 % Nikkol containing VIE-MAN was administered intraperitoneally in such a dose that the amount of the cortisone acetate was 10 mg/kg.
The procedure for Example groups ⑭, ⑮ and ⑯ was repeated except that a physiological saline solution of 10 % Nikkol containing indomethacin which was a nonsteroidal anti-inflammatory preparation (antipyretic analgesic antiphlogistic preparation) in place of the physiological saline solution of 10 % Nikkol containing VIE-MAN was administered intraperitoneally in such a dose that the amount of the indomethacin was 10 mg/kg.

IgE antibody = format: in vivo, rats
Procedure: At first, 20 male SD rats weighing 180 to 220 g were prepared. Egg-white albumin in an amount of 1 mg per rat was prepared as an antigen to induce the IgE antibody-antigen mediating immune response. Further, a mixture of 20 mg/rat of aluminum hydroxide with 0.6 mi/rat of pertussis vaccine was prepared as an immune aid (adjuvant).
Then, the above antigen and the above adjuvant were equally administered intracutaneously into the four footpads of each rat for sensitization.
24 Hours after the sensitization, the footpad swelling of each rat was measured by volumetry to determine the swelling ratio (unit: %). Then, the rats were separated into four groups each consisting of 5 rats such that the average swelling ratio of one group was nearly equal to that of another group.
Thereafter, one of the four groups was used as Control group, and a physiological saline solution of 10 % Nikkol (trade name, dissolving aid, supplied by Nikko Chemical Co., Ltd.) was administered intraperitoneally to each rat for the 11 consecutive days after the group separation, and on 15th day after the group separation, the serum of each rat was collected, and measured for an IgE antibody amount by means of a 48-hour homologous PCA reaction (passive cutaneous anaphylaxis reaction) as an index. In addition, the IgE antibody amount is shown in terms of a maximum dilution (unit: %) of serum showing positive reaction (blue spot having a diameter of not less than 5 mm).
Two groups of the remaining three groups were used as Example groups ⑥ and 0. A physiological saline solution of 10 % Nikkol containing VIE-MAN was administered intraperitoneally to each rat of Example group ⑥ in such a dose that the amount of VIE-MAN was 30 mg/kg/day for 11 days after the group separation. And, a physiological saline solution of 10 % Nikkol containing VIE-MAN was administered intraperitoneally to each rat of Example group 0 every other day (number of days for administration: 6 days) in such a dose that the amount of VIE-MAN was 100 mg/kg/day for 11 days after the group separation. Then, on 15th day after the group separation, the serum of each rat was collected, and measured for an IgE antibody amount in the same manner as that for Control group.
One remaining group of the four groups was used as Comparative Example group @. A physiological saline solution of 10 % Nikkol containing hydrocortisone which was an adrenocortical hormone preparation was administered intraperitoneally to each rat in such a dose that the amount of the hydrocortisone was 10 mg/kg/day for the consecutive 11 days after the group separation. Then, on 15th day after the group separation, the serum of each rat was collected, and measured for an IgE antibody amount in the same manner as that for Example groups 6 and ⑦.

[4] = system: delayed-type hypersensitivity; experiment: picryl chloride-induced delayed-type hypersensitivity, ear swelling ratio; format: in vivo, mice; conditions: Example 1, Fig. 1; VIE-MAN 10, 30, 100 mg/kg/day versus methotrexate 1 mg/kg/day, intraperitoneally
Procedure: 76 Male mice (C57BU6Ncrj) weighing 18 to 20 g were used. The abdominal portion of each mouse was shaved such that the shaved portion was about 1 cm^2. Thereafter, 20 µl of an ethanol solution of 7 % picryl chloride was applied to the shaved portions for sensitization.
Eighteen out of the 76 mice were used as Control group. A physiological saline solution containing 10 % Nikkol (Nikkol: trade name, dissolving aid, supplied by Nikko Chemical Co., Ltd.) was administered intraperitoneally to the 18 mice for the consecutive 5 days after the sensitization, and ear thickness of each of these 18 mice was measured on the eighth day after the sensitization. Thereafter, 20 µl of an olive oil solution of 1 % picryl chloride was applied to the ear of each of the mice to cause delayed-type hypersensitivity.
The above pharmaceutical solutions were administered intraperitoneally at the above-described doses for the five consecutive days after the sensitization, and ear thickness of each of these mice was measured on the eighth day after the sensitization. Thereafter, 20 µl of an olive oil solution of 1 % picryl chloride was applied to the ear of each of the mice to cause delayed-type hypersensitivity.
24 Hours after the delayed-type hypersensitivity was induced, the swelling of the ear of each of the mice of Control group and Example groups ①, ②and③ was measured with a dial thickness gauge. On the basis of the values of the ear thickness measured before the application of the olive oil solution of 1 % picryl chloride, the swelling ratio of each of Example groups ①, ② and ③ and Control group was determined.
And, the swelling ratio of the mice was determined.
At first, the abdominal portion of each of forty ICR male mice weighing 20 to 25 g was shaved such that the shaved portion was about 1 cm^2. Thereafter, 20 µl of an ethanol solution of 7 % picryl chloride was applied to the shaved portions for sensitization.

In the case of `Cc1c(C)c2c(c(C)c1OC1OC(CO)C(O)C(O)C1O)CCC(C)(CCCC(C)CCCC(C)CCCC(C)C)O2` (racemic) [VIE-GAL, dl-a-tocopheryl-,B-galactoside], the “inhibition activity against antigen-adjuvant-induced inflammations” value ([1]; Example 5, Fig. 4, 10 mg/kg) is reported as “also superior”, the “average of the swelling ratios” value ([1]; Example 5, Fig. 4, 0.5 hour after administration of antigen and adjuvant, versus Control group) is reported as “significantly lower than that of the swelling ratios of Control group” and the “side effect on the digestive system” value [2] is reported as “nearly similar results to that of the test on VIE-MAN”.
With `CC(=O)OCC(=O)[C@@]1(O)CC[C@H]2[C@@H]3CCC4=CC(=O)CC[C@]4(C)[C@H]3C(=O)C[C@@]21C` [cortisone acetate] the “inhibition activity against carrageenin-induced inflammation” value ([3]; VIE-MAN 10, 30, 100 mg/kg, depending upon its dose, comparators 10 mg/kg, intraperitoneally) was “significant activity at and after 0.5 hour” and the “inhibition activity against carrageenin-induced inflammation compared with VIE-MAN” value ([3]; comparators 10 mg/kg intraperitoneally) was “lower than that of VIE-MAN”.
In the case of `CN(C)CCOC(c1ccccc1)c1ccccc1` [diphenhydramine, reference compound], the “inhibition activity against antigen-adjuvant-induced inflammations” value ([1]; Example 4, Fig. 3) is reported as “no inhibition activity was found”.
`C[C@]12CCC(=O)C=C1CC[C@@H]1[C@@H]2[C@@H](O)C[C@@]2(C)[C@H]1CC[C@]2(O)C(=O)CO` [hydrocortisone, reference compound] was tested, and the “inhibition activity against the IgE antibody production” value (IgE antibody; Example 3 / Comparative Example 2, VIE-MAN 30 or 100 mg/kg/day, hydrocortisone 10 mg/kg/day, intraperitoneally) was “lower than that of VIE-MAN”, the “IgE antibody amount in serum, Average value” (IgE antibody; group average, (total 11 days) intraperitoneally, maximum dilution of serum showing positive reaction) was 473.6 and the “inhibition activity against antigen-adjuvant-induced inflammations” value ([1]; Example 4, Fig. 3) was “no inhibition activity was found”.
For `CN(Cc1cnc2nc(N)nc(N)c2n1)c1ccc(C(=O)N[C@@H](CCC(=O)O)C(=O)O)cc1` [methotrexate, reference compound], the “preventive and therapeutical effect on delayed-type hypersensitivity (comparison)” value [4] was “VIE-MAN was superior to methotrexate”.
